Here are results for one molecule from the NIST ThermoML archive (doi:10.1016/j.tca.2019.178375).

Numbers after ± are expanded uncertainties.

The conditions of series [1]: Crystal; DTA.
Series [2] can be described thus: Molar enthalpy of transition or fusion. Particulars: Crystal; DSC.

Take `Cl.c1ccc([C@H]2CN3CCSC3=N2)cc1` [(-)-Levamisole hydrochloride]: the Normal melting temperature in series [1] was found to be 227.00 ± 4 °C. Moreover, the “Molar enthalpy of transition or fusion” value in series [2] came out at 7.63 ± 0.478 kcal/mol.
